How the values were obtained:
[1] = biological target: T1, C-terminal domain (CTD) of human STING (Homo sapiens, UniProt Q86WV6); experiment: STING binding FP assay I (fluorescence polarization competition binding); set-up: recombinant human STING protein (155-379); conditions: recombinant human STING protein (155-379), 35 nM STING, 4 nM fluorescein-labelled STING ligand (Probe 1), 20 min at room temperature
Protocol: The interaction between molecules and the C-terminal domain (CTD) of human STING was evaluated using a competition binding assay. In this assay, recombinant human STING protein (155-379) and a STING binding fluorescent probe were employed. Upon binding of the probe to STING, the rotation of the fluorescent probe is slowed due to the larger molecular size of the protein-bound complex. As a result, emitted light retains its plane of polarization, leading to an increase in fluorescence polarization. Molecules competing for the probe binding site displace the probe, which leads to rapid randomization of the polarization plane of the emitted light and a subsequent decrease in measured fluorescence polarization signal. Change in polarization was measured, allowing a comparative evaluation of the binding affinities of different compounds to the target protein.
The assay was performed in 96-well plates (ThermoFisher, cat.# 237108) containing 100 µl : 10 µL test compound in 10% DMSO and buffer A (150 mM NaCl, 50 mM HEPES pH 7.5, 1 mM DTT) + 90 µL prepared master mix solution of: 4 nM fluorescein-labelled STING ligand (Probe 1; synthesis described above) in buffer A + 0.055% Tween-20 (v/v) and 35 nM STING in buffer A. Post mixing, plates were agitated at 600 rpm and incubated for 20 min at room temperature. Subsequent measurements of the fluorescence polarization signal were made on a BioTek Synergy-H1 plate reader, using a polarization filter; excitation: 485/20 nm, emission: 528/20 nm) with a gain-setting of 75. IC50 values were determined using a standard non-linear regression four-parameter curve fit in Graphpad Prism.
Target sequence in this assay (Q86WV6 155-379): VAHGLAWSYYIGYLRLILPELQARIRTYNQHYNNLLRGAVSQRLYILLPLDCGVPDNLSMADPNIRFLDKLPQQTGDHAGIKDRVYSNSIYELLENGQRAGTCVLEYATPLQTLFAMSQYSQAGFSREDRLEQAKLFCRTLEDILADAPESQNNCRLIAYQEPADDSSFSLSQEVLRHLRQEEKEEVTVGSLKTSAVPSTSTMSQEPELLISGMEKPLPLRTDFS

[2] = biological target: T1, C-terminal domain (CTD) of human STING; experiment: STING binding TR-FRET assay (CisBio Human STING WT Binding Kit); set-up: purchased CisBio 64BDSTGPEG; conditions: recombinant human STING with His-tag, D2-labeled active site probe, 60 min at room temperature
Protocol: STING binding can be determined by a time-resolved FRET assay. For instance, a STING protein having a His-tag can be used. A D2-labeled active site probe can be used to accept 620 nm emission from Anti-HIS-Tb-STING. Increased fluorescence is measured at 665 nm. Molecules that compete for the probe binding site will result in a lower 665 nm signal. The assay can be performed in low-volume white 96-well plates containing 5 µL compounds in an appropriate diluent buffer. Following 60 minutes incubation at room temperature in the dark, fluorescence emission at 665 nm is measured following 330 nm xenon flash excitation. pIC50 values can be determined using a standard four parameter curve fit.
The affinity of molecules to the C-terminal domain (CTD) of human STING was determined using a commercial Human STING WT Binding Kit (CisBio, cat.# 64BDSTGPEG). In this time-resolved FRET assay, a recombinant human STING protein construct with a His-tag was employed. When bound to STING, a D2-labeled active site probe accepts the 620 nm emission from Anti-HIS-Tb-STING and an increase in fluorescence is measured at 665 nm. Molecules that compete for the probe binding site will result in a low 665 nm signal. The assay was run in CisBio low-volume white 96-well plates (catalog# 66PL96005) containing 5 µL compounds in Diluent Buffer (supplied with the CisBio kit). A solution of 1xSTING, 1x Anti-HIS-Tb and 1X D2-probe in TB detection buffer (kit supplied) was added to the plate. Plates were centrifuged for 2 min at 500 rpm, incubated for 60 min at room temperature in the dark, and then fluorescence emission at 665 nm following 330 nm xenon flash excitation on an BioTek synergy H1 multimode reader (Agilent) was measured. The plC50 values were determined using a standard four parameter curve fit in GraphPad Prism.
Target sequence in this assay (Q86WV6 135-379 limits assumed): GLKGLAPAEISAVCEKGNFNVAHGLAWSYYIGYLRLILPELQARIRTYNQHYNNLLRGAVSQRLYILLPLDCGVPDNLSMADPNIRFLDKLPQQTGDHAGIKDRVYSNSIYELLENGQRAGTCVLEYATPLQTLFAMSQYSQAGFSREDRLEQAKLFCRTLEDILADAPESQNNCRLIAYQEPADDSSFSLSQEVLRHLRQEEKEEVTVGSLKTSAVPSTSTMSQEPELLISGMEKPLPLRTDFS

STING = biological target: T2, STING (Homo sapiens, UniProt Q86WV6); experiment: Human FB STING antagonist assay (IFN-a/b release); type: cell-based; conditions: Human skin fibroblasts, 2h pre-treatment, 300 nM GSK STING agonist (CAS number: 2138299-34-8) for 20 h, release of IFN-a/b by HEK-Blue IFN-α/β bioassay
T2 construct: endogenous in cells; host or cells: human skin fibroblasts
T2 sequence (Q86WV6 whole entry): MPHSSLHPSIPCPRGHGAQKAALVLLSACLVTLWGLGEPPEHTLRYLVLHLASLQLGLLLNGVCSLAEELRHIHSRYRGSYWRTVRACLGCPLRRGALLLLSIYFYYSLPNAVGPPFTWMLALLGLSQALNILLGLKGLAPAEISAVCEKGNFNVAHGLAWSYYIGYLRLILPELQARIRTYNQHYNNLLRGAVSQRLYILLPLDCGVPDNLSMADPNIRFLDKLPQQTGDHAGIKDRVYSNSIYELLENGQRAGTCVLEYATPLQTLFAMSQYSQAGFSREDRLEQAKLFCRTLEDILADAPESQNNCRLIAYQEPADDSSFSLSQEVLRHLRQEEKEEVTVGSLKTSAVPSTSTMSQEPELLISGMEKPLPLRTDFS
Protocol: STING antagonist activity can be determined by a human fibroblast antagonist assay. For this, human skin fibroblasts are pre-treated for 2h with a serial dilution of the compound, and are then stimulated for 20 hours with 300 nM STING agonist (e.g. from GSK, CAS number: 2138299-34-8). Supernatants are then harvested and assessed for IFN-a/b release, which indicates STING activation. IFN-a/b concentration in the supernatant is determined, e.g. using an IFN-α/β bioassay. IC50 values are calculated using a non-linear regression fitting, variable slope (4 parameters).
Human skin fibroblasts were pre-treated for 2h with a serial dilution of test compound followed by stimulation with mock or 300 nM GSK STING agonist (CAS number: 2138299-34-8). Supernatants were harvested after 20 h of STING agonist stimulation. Release of IFN-a/b was determined using HEK-Blue IFN-α/β bioassay (Invivogen). Cellular viability was assessed using Alamar Blue HS assay. IC50 values were estimated using a non-linear regression fitting, variable slope (4 parameters) in GraphPad Prism 9.3.1.

Row | Compound | IC50 [1] [nM] | IC50 [2] [nM] | IC50 (STING) [nM]
1 | CCn1nc(C)cc1C(=O)N=c1n(C)c2cc(C(N)=O)ccc2n1CCC(CCn1c(=NC(=O)c2cc(C)nn2CC)n(C)c2cc(C(N)=O)ccc21)OCC(=O)O (stereo not drawn) [Example 3, (3-{5-Carbamoyl-2-[(1-ethyl-3-methyl-5-pyrazolyl)carbonylimino]-3-methyl-2,3-dihydro-1H-1,3-benzimidazol-1-yl}-1-(2-{5-carbamoyl-2-[(1-ethyl-3-methyl-5-pyrazolyl)carbonylimino]-3-methyl-2,3-dihydro-1H-1,3-benzimidazol-1-yl}ethyl)propoxy)acetic acid] | < 30 | 0.452 | –
2 | CCn1nc(C)cc1C(=O)N=c1n(C)c2cc(C(N)=O)ccc2n1CCC(CCn1c(=NC(=O)c2cc(C)nn2CC)n(C)c2cc(C(N)=O)ccc21)OCC(=O)NC(C)C (stereo not drawn) [Example 5, 1-{3-[(N-lsopropylcarbamoyl)methoxy]-5-{5-carbamoyl-2-[(1-ethyl-3-methyl-5-pyrazolyl)carbonylimino]-3-methyl-2,3-dihydro-1H-1,3-benzimidazol-1-yl}pentyl}-2-[(1-ethyl-3-methyl-5-pyrazolyl)carbonylimino]-3-methyl-2,3-dihydro-1H-1,3-benzimidazole-5-carboxamide] | < 30 | 0.38 | –
3 | CCn1nc(C)cc1C(=O)N=c1n(C)c2cc(C(N)=O)ccc2n1CCC(CCn1c(=NC(=O)c2cc(C)nn2CC)n(C)c2cc(C(N)=O)ccc21)OCC(=O)Nc1ccccc1 (stereo not drawn) [Example 6, 1-{3-[(N-Phenylcarbamoyl)methoxy]-5-{5-carbamoyl-2-[(1-ethyl-3-methyl-5-pyrazolyl)carbonylimino]-3-methyl-2,3-dihydro-1H-1,3-benzimidazol-1-yl}pentyl}-2-[(1-ethyl-3-methyl-5-pyrazolyl)carbonylimino]-3-methyl-2,3-dihydro-1H-1,3-benzimidazole-5-carboxamide] | < 30 | 0.6 | 7600
4 | CCn1nc(C)cc1C(=O)N=c1n(C)c2cc(C(N)=O)ccc2n1CCC(CCn1c(=NC(=O)c2cc(C)nn2CC)n(C)c2cc(C(N)=O)ccc21)OCC(=O)N1CCOCC1 (stereo not drawn) [Example 7, 1-(5-{5-Carbamoyl-2-[(1-ethyl-3-methyl-5-pyrazolyl)carbonylimino]-3-methyl-2,3-dihydro-1H-1,3-benzimidazol-1-yl}-3-(2-morpholino-2-oxoethoxy)pentyl)-2-[(1-ethyl-3-methyl-5-pyrazolyl)carbonylimino]-3-methyl-2,3-dihydro-1H-1,3-benzimidazole-5-carboxamide] | < 30 | 0.267 | 3500
5 | CCn1nc(C)cc1C(=O)N=c1n(C)c2cc(C(N)=O)ccc2n1CCC(CCn1c(=NC(=O)c2cc(C)nn2CC)n(C)c2cc(C(N)=O)ccc21)OCC(=O)Nc1ccncn1 (stereo not drawn) [Example 8, 1-{3-[(N-4-Pyrimidinylcarbamoyl)methoxy]-5-{5-carbamoyl-2-[(1-ethyl-3-methyl-5-pyrazolyl)carbonylimino]-3-methyl-2,3-dihydro-1H-1,3-benzimidazol-1-yl}pentyl}-2-[(1-ethyl-3-methyl-5-pyrazolyl)carbonylimino]-3-methyl-2,3-dihydro-1H-1,3-benzimidazole-5-carboxamide] | < 30 | – | 4700
6 | CCn1nc(C)cc1C(=O)N=c1n(C)c2cc(C(N)=O)ccc2n1CCC(CCn1c(=NC(=O)c2cc(C)nn2CC)n(C)c2cc(C(N)=O)ccc21)OCC(=O)N1CCc2cc(OC)ccc2C1 (stereo not drawn) [Example 9, 1-(5-{5-Carbamoyl-2-[(1-ethyl-3-methyl-5-pyrazolyl)carbonylimino]-3-methyl-2,3-dihydro-1H-1,3-benzimidazol-1-yl}-3-[2-(6-methoxy-1,2,3,4-tetrahydro-2-isoquinolyl)-2-oxoethoxy]pentyl)-2-[(1-ethyl-3-methyl-5-pyrazolyl)carbonylimino]-3-methyl-2,3-dihydro-1H-1 ,3-benzimidazole-5-carboxamide] | < 30 | 0.665 | 13100

— patent EP4534147A1, “STING ANTAGONIST COMPOUNDS” (Sulis Therapeutics ApS, priority 2023, dated 2025)
